# Measurements reported in ChEMBL document CHEMBL5241112, “Insights into the recent progress in the medicinal chemistry of pyranopyrimidine analogs” (RSC Med Chem, 2022).
# Columns and labels:
# [1] = test system: Mycobacterium tuberculosis; experiment: Antitubercular activity against Mycobacterium tuberculosis H37Rv assessed as bacterial growth inhibition incubated for 24 hrs by MABA assay; format: functional
# Staphylococcus aureus [2] = experiment: Antimicrobial activity against Staphylococcus aureus NCTC7447 assessed as diameter of inhibition zone at 20 mg/ml incubated for 24 hrs by disk diffusion method; format: functional; conditions: read-out: DIZ
# Bacillus cereus = experiment: Antimicrobial activity against Bacillus cereus ATCC14579 assessed as diameter of inhibition zone at 20 mg/ml incubated for 24 hrs by disk diffusion method; format: functional; conditions: read-out: DIZ
# Escherichia coli [3] = experiment: Antimicrobial activity against Escherichia coli ATCC 14169 assessed as diameter of inhibition zone at 20 mg/ml incubated for 24 hrs by disk diffusion method; format: functional; conditions: read-out: DIZ
# Pseudomonas aeruginosa = experiment: Antimicrobial activity against Pseudomonas aeruginosa ATCC 27853 assessed as diameter of inhibition zone at 20 mg/ml incubated for 24 hrs by disk diffusion method; format: functional; conditions: read-out: DIZ
# Klebsiella pneumoniae = experiment: Antimicrobial activity against Klebsiella pneumoniae UC57 assessed as diameter of inhibition zone at 20 mg/ml incubated for 24 hrs by disk diffusion method; format: functional; conditions: read-out: DIZ
# HCT-116 [4] = experiment: Anticancer activity against human HCT-116 cells assessed as reduction in cell viability incubated for 96 hrs by MTT assay; format: functional, cell-based; conditions: HCT-116, 96 h
# Bacillus subtilis = experiment: Antibacterial activity against Bacillus subtilis assessed as diameter of inhibition zone; format: functional
# Salmonella typhimurium = experiment: Antibacterial activity against Salmonella typhimurium assessed as diameter of inhibition zone; format: functional, Salmonella enterica subsp. enterica serovar Typhimurium
# HepG2 = experiment: Anticancer activity against human HepG2 cells assessed as reduction in cell viability; format: functional, cell-based
# HCT-116 [5] = experiment: cells; conditions: Homo sapiens
# MCF7 [6] = experiment: Anticancer activity against human MCF7 cells assessed as reduction in cell viability; format: functional, cell-based
# MCF7 [7] = experiment: cells; conditions: Homo sapiens, MCF7, 48 h
# [8] = Inhibition of porcine pancreatic alpha-amylase preincubated for 10 mins followed by substrate starch addition and measured after 10 mins by colorimetric analysis; parameters: species or system Sus scrofa
# Albumin = Albumin (Bos taurus, UniProt P02769); experiment: […] bovine serum albumin denaturation incubated for 23 mins by UV-Visible spectrophotometry
# Alpha-glucosidase = Alpha-glucosidase (Saccharomyces cerevisiae S288c, UniProt P53341+P38158+P07265); experiment: Inhibition of Saccharomyces cerevisiae alpha-glucosidase preincubated for 5 mins followed by PNP-GLUC substrate addition and measured after 20 mins by spectroscopic analysis; format: protein assay
# [9] = Antioxidant activity assessed as hydroxyl radical scavenging activity incubated for 5 mins by spectrophotometric analysis; format: functional; parameters: concentration or dose not given beside the values
# [10] = Antioxidant activity assessed as DPPH radical scavenging activity incubated for 20 mins by spectrophotometric analysis; format: functional; parameters: concentration or dose not given beside the values
# Staphylococcus aureus [11] = experiment: Antibacterial activity against Staphylococcus aureus assessed as diameter of inhibition zone; format: functional
# Escherichia coli [12] = experiment: Antibacterial activity against Escherichia coli assessed as diameter of inhibition zone; format: functional
# Albumin, sequence (P02769 whole entry): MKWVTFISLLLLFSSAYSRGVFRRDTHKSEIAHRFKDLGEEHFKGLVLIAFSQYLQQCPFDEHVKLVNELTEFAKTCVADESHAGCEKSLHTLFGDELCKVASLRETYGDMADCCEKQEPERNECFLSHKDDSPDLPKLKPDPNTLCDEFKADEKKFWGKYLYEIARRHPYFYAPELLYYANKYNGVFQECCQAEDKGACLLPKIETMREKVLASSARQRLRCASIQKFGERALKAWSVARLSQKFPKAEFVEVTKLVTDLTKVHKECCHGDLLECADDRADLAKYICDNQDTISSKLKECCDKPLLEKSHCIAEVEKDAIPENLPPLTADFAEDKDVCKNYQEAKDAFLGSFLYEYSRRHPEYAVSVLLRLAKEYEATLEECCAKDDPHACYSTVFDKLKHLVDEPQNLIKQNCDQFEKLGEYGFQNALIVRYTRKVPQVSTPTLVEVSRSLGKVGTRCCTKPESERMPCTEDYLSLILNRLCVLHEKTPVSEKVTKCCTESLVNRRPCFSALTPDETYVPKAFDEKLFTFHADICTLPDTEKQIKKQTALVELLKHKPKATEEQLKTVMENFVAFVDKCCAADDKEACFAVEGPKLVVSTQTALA
smiles,measurement,setting,value
O=c1nc2c3c([nH]1)Oc1ccc4ccccc4c1C3c1c(c3ccccc3oc1=O)O2 (centres undefined),MIC,[1],25 µg/mL
N#CC1=C(N)Oc2[nH]c(=O)[nH]c(=O)c2C1c1cccc(O)c1 (centres undefined),zone of inhibition at 20000 µg/mL,Staphylococcus aureus [2],15 mm
same,zone of inhibition at 20000 µg/mL,Bacillus cereus,10 mm
same,zone of inhibition at 20000 µg/mL,Escherichia coli [3],14 mm
same,zone of inhibition at 20000 µg/mL,Pseudomonas aeruginosa,15 mm
same,zone of inhibition at 20000 µg/mL,Klebsiella pneumoniae,8 mm
O=c1nc2c3c([nH]1)Oc1c(O)cccc1C3c1c(c3ccccc3oc1=O)O2 (centres undefined),MIC,[1],50 µg/mL
O=c1nc2c3c([nH]1)Oc1cc(O)ccc1C3c1c(c3ccccc3oc1=O)O2 (centres undefined),MIC,[1],50 µg/mL
CN[C@@H]1C[C@H]2O[C@@](C)([C@@H]1OC)n1c3ccccc3c3c4c(c5c6ccccc6n2c5c31)C(=O)NC4 [STAUROSPORINE],IC50,HCT-116 [4],6.94 µM
O=c1nc2c3c([nH]1)Oc1ccccc1C3c1c(c3ccccc3oc1=O)O2 (centres undefined),MIC,[1],12.5 µg/mL
COc1ccc(C2C(C#N)=C(N)Oc3[nH]c(=O)[nH]c(=O)c32)cc1OC (centres undefined),zone of inhibition at 20000 µg/mL,Staphylococcus aureus [2],8 mm
same,diameter of the inhibition zone (DIZ),Bacillus subtilis,10 mm
same,zone of inhibition at 20000 µg/mL,Bacillus cereus,9 mm
same,diameter of the inhibition zone (DIZ),Salmonella typhimurium,8 mm
same,zone of inhibition at 20000 µg/mL,Escherichia coli [3],8 mm
same,zone of inhibition at 20000 µg/mL,Pseudomonas aeruginosa,4 mm
same,zone of inhibition at 20000 µg/mL,Klebsiella pneumoniae,14 mm
NC(=O)c1cnccn1 [PYRAZINAMIDE],MIC,[1],3.12 µg/mL
COc1ccc(C2c3c([nH]c(=O)[nH]c3=O)Oc3ncn(-c4ccc(C)cc4)c(=N)c32)cc1 (centres undefined),IC50,HepG2,2.09 µM
same,IC50,HCT-116 [5],2.61 µM
same,IC50,MCF7 [6],2.43 µM
O=c1[nH]cc(F)c(=O)[nH]1 [FLUOROURACIL],IC50,MCF7 [7],5.4 µM
O=c1nc2c3c([nH]1)Oc1c(Cl)cc(Cl)cc1C3c1c(c3ccccc3oc1=O)O2 (centres undefined),MIC,[1],50 µg/mL
COc1ccccc1C1C(C#N)=C(N)Oc2[nH]c(=O)[nH]c(=O)c21 (centres undefined),zone of inhibition at 20000 µg/mL,Staphylococcus aureus [2],15 mm
same,zone of inhibition at 20000 µg/mL,Bacillus cereus,11 mm
same,zone of inhibition at 20000 µg/mL,Escherichia coli [3],9 mm
same,zone of inhibition at 20000 µg/mL,Pseudomonas aeruginosa,7 mm
same,zone of inhibition at 20000 µg/mL,Klebsiella pneumoniae,13 mm
COc1ccc(C2C(C(=O)N3CCCCC3)=C(c3ccccc3O)Oc3[nH]c(=S)[nH]c(=O)c32)cc1 (centres undefined),IC50,[8],16.1 µM
same,IC50,Albumin,18.1 µM
same,IC50,Alpha-glucosidase,5223 µM
COc1ccc(C2C(C#N)=C(NC(C)=O)Oc3[nH]c(=O)[nH]c(=O)c32)cc1 (centres undefined),IC50,HepG2,2.09 µM
same,IC50,HCT-116 [5],2.61 µM
same,IC50,MCF7 [6],2.43 µM
O=c1nc2c3c([nH]1)Oc1ccc(Cl)cc1C3c1c(c3ccccc3oc1=O)O2 (centres undefined),MIC,[1],6.25 µg/mL
N#CC1=C(N)Oc2[nH]c(=O)[nH]c(=O)c2C1c1ccccc1[N+](=O)[O-] (centres undefined),zone of inhibition at 20000 µg/mL,Staphylococcus aureus [2],5 mm
same,zone of inhibition at 20000 µg/mL,Bacillus cereus,10 mm
same,zone of inhibition at 20000 µg/mL,Escherichia coli [3],11 mm
same,zone of inhibition at 20000 µg/mL,Pseudomonas aeruginosa,9 mm
same,zone of inhibition at 20000 µg/mL,Klebsiella pneumoniae,6 mm
O=c1[nH]c2c(c(=O)[nH]1)Oc1c(c(=O)oc3ccccc13)C2c1ccc(F)cc1 (centres undefined),Activity,[9],62.1%
same,Activity,[10],70.1%
N#CC1=C(N)Oc2[nH]c(=O)[nH]c(=O)c2C1c1ccccc1Cl (centres undefined),diameter of the inhibition zone (DIZ),Staphylococcus aureus [11],20 mm
same,diameter of the inhibition zone (DIZ),Escherichia coli [12],14 mm
same,diameter of the inhibition zone (DIZ),Bacillus subtilis,18 mm
same,diameter of the inhibition zone (DIZ),Salmonella typhimurium,18 mm
COc1cc(C2C(C(=O)N3CCCCC3)=C(c3ccccc3O)Oc3[nH]c(=S)[nH]c(=O)c32)ccc1O (centres undefined),IC50,[8],22.6 µM
same,IC50,Albumin,23.3 µM
same,IC50,Alpha-glucosidase,4862 µM
COc1ccc(C2C(C#N)=C(NC(=O)/C=C/C(=O)O)Oc3[nH]c(=O)[nH]c(=O)c32)cc1 (centres undefined),IC50,HepG2,2.09 µM
same,IC50,HCT-116 [5],2.61 µM
same,IC50,MCF7 [6],2.43 µM
N#CC1=C(N)Oc2[nH]c(=O)[nH]c(=O)c2C1c1ccc(F)cc1 (centres undefined),diameter of the inhibition zone (DIZ),Escherichia coli [12],8 mm
same,diameter of the inhibition zone (DIZ),Bacillus subtilis,10 mm
same,diameter of the inhibition zone (DIZ),Salmonella typhimurium,12 mm
O=c1[nH]c2c(c(=O)[nH]1)Oc1c(c(=O)oc3ccccc13)C2c1ccccc1O (centres undefined),Activity,[9],54.3%
same,Activity,[10],59.1%
O=c1nc2c3c([nH]1)Oc1ccc(O)cc1C3c1c(c3ccccc3oc1=O)O2 (centres undefined),MIC,[1],50 µg/mL
O=c1[nH]c2c(c(=O)[nH]1)Oc1c(c(=O)oc3ccccc13)C2c1c(Cl)cccc1Cl (centres undefined),Activity,[9],65.4%
same,Activity,[10],71.2%
COc1ccc2c(c1)C1c3c(nc(=O)[nH]c3O2)Oc2c1c(=O)oc1ccccc21 (centres undefined),MIC,[1],50 µg/mL
Cc1ccc(C2C(C(=O)N3CCCCC3)=C(c3ccccc3O)Oc3[nH]c(=S)[nH]c(=O)c32)cc1 (centres undefined),IC50,[8],14.1 µM
same,IC50,Albumin,19.5 µM
same,IC50,Alpha-glucosidase,4000 µM
COc1ccc(C2c3[nH]c(=O)[nH]c(=O)c3Oc3c2c(=O)oc2ccccc32)c(O)c1 (centres undefined),Activity,[9],54.3%
same,Activity,[10],59.1%
N#CC1=C(N)Oc2[nH]c(=O)[nH]c(=O)c2C1c1ccccc1 (centres undefined),diameter of the inhibition zone (DIZ),Staphylococcus aureus [11],8 mm
same,zone of inhibition at 20000 µg/mL,Staphylococcus aureus [2],8 mm
same,diameter of the inhibition zone (DIZ),Bacillus subtilis,10 mm
same,zone of inhibition at 20000 µg/mL,Bacillus cereus,12 mm
same,diameter of the inhibition zone (DIZ),Salmonella typhimurium,10 mm
same,zone of inhibition at 20000 µg/mL,Escherichia coli [3],13 mm
same,zone of inhibition at 20000 µg/mL,Pseudomonas aeruginosa,14 mm
same,zone of inhibition at 20000 µg/mL,Klebsiella pneumoniae,5 mm
N#CC1=C(N)Oc2[nH]c(=O)[nH]c(=O)c2C1c1ccc([N+](=O)[O-])cc1 (centres undefined),diameter of the inhibition zone (DIZ),Staphylococcus aureus [11],16 mm
same,zone of inhibition at 20000 µg/mL,Staphylococcus aureus [2],4 mm
same,diameter of the inhibition zone (DIZ),Escherichia coli [12],16 mm
same,diameter of the inhibition zone (DIZ),Bacillus subtilis,18 mm
same,zone of inhibition at 20000 µg/mL,Bacillus cereus,11 mm
same,diameter of the inhibition zone (DIZ),Salmonella typhimurium,14 mm
same,zone of inhibition at 20000 µg/mL,Escherichia coli [3],12 mm
same,zone of inhibition at 20000 µg/mL,Pseudomonas aeruginosa,3 mm
same,zone of inhibition at 20000 µg/mL,Klebsiella pneumoniae,4 mm
N#CC1=C(N)Oc2[nH]c(=O)[nH]c(=O)c2C1c1ccc(O)cc1 (centres undefined),diameter of the inhibition zone (DIZ),Staphylococcus aureus [11],10 mm
same,zone of inhibition at 20000 µg/mL,Staphylococcus aureus [2],15 mm
same,diameter of the inhibition zone (DIZ),Escherichia coli [12],10 mm
same,zone of inhibition at 20000 µg/mL,Bacillus cereus,14 mm
same,diameter of the inhibition zone (DIZ),Salmonella typhimurium,10 mm
same,zone of inhibition at 20000 µg/mL,Escherichia coli [3],15 mm
same,zone of inhibition at 20000 µg/mL,Pseudomonas aeruginosa,15 mm
same,zone of inhibition at 20000 µg/mL,Klebsiella pneumoniae,10 mm
CCO/C=N/C1=C(C#N)C(c2ccc(OC)cc2)c2c([nH]c(=O)[nH]c2=O)O1 (centres undefined),IC50,HepG2,2.09 µM
same,IC50,HCT-116 [5],2.61 µM
same,IC50,MCF7 [6],2.43 µM
C[C@H]1O[C@H](O[C@H]2[C@H](O)[C@@H](O)[C@@H](O[C@H]3[C@H](O)[C@@H](O)C(O)O[C@@H]3CO)O[C@@H]2CO)[C@H](O)[C@@H](O)[C@@H]1N[C@H]1C=C(CO)[C@@H](O)[C@H](O)[C@H]1O (some centres undefined) [ACARBOSE],IC50,[8],0.214 µM
COc1ccc(C2c3c([nH]c(=O)[nH]c3=O)Oc3ncn(-c4ccccc4N)c(=N)c32)cc1 (centres undefined),IC50,HepG2,2.09 µM
same,IC50,HCT-116 [5],2.61 µM
same,IC50,MCF7 [6],2.43 µM
CN[C@@H]1[C@H](O[C@H]2[C@H](O[C@H]3[C@H](O)[C@@H](O)[C@H](N=C(N)N)[C@@H](O)[C@@H]3N=C(N)N)O[C@@H](C)[C@]2(O)C=O)O[C@@H](CO)[C@H](O)[C@H]1O [STREPTOMYCIN],diameter of the inhibition zone (DIZ),Staphylococcus aureus [11],16 mm
same,MIC,[1],6.25 µg/mL
same,zone of inhibition at 20000 µg/mL,Staphylococcus aureus [2],18 mm
same,diameter of the inhibition zone (DIZ),Escherichia coli [12],20 mm
same,diameter of the inhibition zone (DIZ),Bacillus subtilis,18 mm
same,zone of inhibition at 20000 µg/mL,Bacillus cereus,16 mm
same,diameter of the inhibition zone (DIZ),Salmonella typhimurium,18 mm
same,zone of inhibition at 20000 µg/mL,Escherichia coli [3],18 mm
same,zone of inhibition at 20000 µg/mL,Pseudomonas aeruginosa,16 mm
same,zone of inhibition at 20000 µg/mL,Klebsiella pneumoniae,18 mm
CCO/C=N/C1=C(C#N)C(c2cccs2)c2c([nH]c(=O)[nH]c2=O)O1 (centres undefined),IC50,HCT-116 [4],2.9 µM
COc1cc(C2CC(=O)Oc3[nH]c(=O)[nH]c(=O)c32)cc(OC)c1OC (centres undefined),IC50,MCF7 [7],8.9 µM
N#CC1=C(N)Oc2[nH]c(=O)[nH]c(=O)c2C1c1cccc(Br)c1 (centres undefined),diameter of the inhibition zone (DIZ),Staphylococcus aureus [11],16 mm
same,diameter of the inhibition zone (DIZ),Escherichia coli [12],14 mm
same,diameter of the inhibition zone (DIZ),Bacillus subtilis,18 mm
same,diameter of the inhibition zone (DIZ),Salmonella typhimurium,16 mm
